The nature of this data set: Human HepG2 cell viability assay in 384 well format. The class given is toxicity, cell-based. More on the design: dose 125 nL, time 70.5 hour; cytotoxicity at 70.5 h: concentration not given beside the values. The following applies: HepG2 cells, read-out: Inhibition.
As to `Cc1cc(NCC(=O)N(C)Cc2cccs2)c(C(N)=O)cc1F`, the cytotoxicity at 70.5 h was determined as 0.052%. The figure for `O=C(NC(CN1CCCC1)c1ccccc1)c1c(O)cc(F)cc1F` (stereo not given) is -1.92%; for `O=C1CC(CNc2cncc(Br)c2)c2ccccc2N1` (stereo not given) it is 3.03%; for `NC(=O)CN(C(=O)c1c[nH]c2ncccc12)C1CCCC1` it is 3.16%. `Cc1cnn(-c2cccc(N3CCCC3)n2)c1`: the cytotoxicity at 70.5 h is -1.27%. Next, `CCN(CC)C(=O)Cc1csc(C(C)C)n1`: 14%; `CC(=O)N1CCC[C@H]1C(=O)N(C)CCCOc1ccccc1`: -2.16%; `O=C(Nc1ccccc1OC1CCOC1)c1[nH]nc2c1CCCC2` (stereo not given): 8.78%.

`COc1ccc(F)cc1CSCC(=O)N(C)C1CC1`: the cytotoxicity at 70.5 h is -0.442%. For the compound `CCS(=O)(=O)c1ccc2c(c1)OCCO2`, the cytotoxicity at 70.5 h was -0.357%. Next, `COc1ccc(C(=O)N(c2ccc(OC)c(F)c2)C(C)C)cn1`: -2.91%; `CC(c1nc(C2CC2)no1)N(C)Cc1cccc(F)c1` (stereo not given): -2.41%; `O=C(NCc1cccnc1)N1CCSCC1CCO` (stereo not given): 13.2%. The figure for `O=C(Nc1nncs1)c1ccc(-n2cnnn2)cc1` is 1.5%.

On to `Cc1nn(C)c(Cl)c1CNCCOc1ccc2c(c1)OCO2`, for which the cytotoxicity at 70.5 h came out at 7.39%.

`Cn1cnc2c1CCN(CC(=O)N(Cc1ccccc1F)C1CC1)C2`: the cytotoxicity at 70.5 h was -6.36%. Regarding `CC(C)c1nnc2n1CCN(C(=O)c1ccccc1OCC1CC1)C2`, the cytotoxicity at 70.5 h is -4.61%. Next, `COc1ccc2c(c1)C(=O)N(C)C1(CCN(CC3CC3)CC1)N2`: 3.49%; `COCCS(=O)(=O)Nc1ccc(-n2nccc2C(F)(F)F)cc1`: 18.2%; `Cc1cccc(C)c1OCC(=O)Nc1cccn(C)c1=O`: -4.44%. The figure for `COCCNC(=O)NCCc1cccc(OC)c1O` is 0.934%. Next, `Cn1cnc2c1CCN(CC(=O)N(Cc1ccsc1)C1CC1)C2`: 0.271%. With `O=C(NCc1ccncc1)N1CCSCC1c1ccc(Cl)cc1` (stereo not given), the cytotoxicity at 70.5 h worked out at 3.04%. The figure for `N#Cc1cccnc1NCCC1CCN(CC(F)(F)F)CC1` is -5%; for `CSc1ccc(NC(=O)NCC(O)C(C)C)cc1F` (stereo not given) it is 4.17%; for `CSc1ccc(NC(=O)NCC(O)C2CC2)cc1F` (stereo not given) it is 7.73%. Next, `Cn1cnn(CC(=O)NCc2ccccc2F)c1=O`: 20.6%; `Cn1cnn(Cc2ccccc2F)c1=O`: 2.33%; `O=C1C(Nc2ncccn2)CCN1c1ccccc1OC(F)F` (stereo not given): 1.42%.

Turning to `COc1ccccc1N1CCCC(Nc2ncccn2)C1=O` (stereo not given), the cytotoxicity at 70.5 h is -3.79%. Next, `COc1cccc(CCNC(=O)NC(C)C)c1O`: 9.97%. The figure for `c1ccc(-c2nnc3ccc(N4CCC5(CCOC5)C4)nn23)cc1` (stereo not given) is 5.72%; for `CN(C)S(=O)(=O)Nc1ccc(-n2nncc2C(F)(F)F)cc1` it is 3.32%; for `O=C(Cc1ccc(-n2cnnn2)cc1)Nc1nncs1` it is -3.13%. As to `CN(CCO)C(=O)Nc1ccn(-c2cccc(C(F)(F)F)c2)n1`, the cytotoxicity at 70.5 h is -2.71%. Next, `COCCNC(=O)Nc1ccn(-c2cccc(C(F)(F)F)c2)n1`: 9.44%; `CC(C)C(NC(=O)c1ccccc1)C(=O)N1CCC2(CC1)OCCO2` (stereo not given): 17.2%.

In the case of `CN(CCOc1ccc(Br)cc1)Cc1cscn1`, the cytotoxicity at 70.5 h is 1.92%. The figure for `CN(Cc1ccsc1)C(=O)CN1CCc2c(ncn2C)C1` is 17.8%; for `CCN(CCS(=O)(=O)CC)CC1CCCO1` (stereo not given) it is -3.45%; for `CCc1nc(CN(C)Cc2nnc(-c3cccs3)o2)cs1` it is -3.41%.

Consider `Cc1nsc(NC2CCN(c3ccccc3OC(F)F)C2=O)n1` (stereo not given), for which the cytotoxicity at 70.5 h amounted to 9.92%. Next, `Cc1cc(C)cc(OCCN(C)Cc2cscn2)c1`: 0.706%; `COc1cccc2c1N(Cc1noc(C(C)(C)C)n1)CCC2`: 18.5%. The figure for `COCCN(C)C(=O)Nc1ccn(-c2cccc(C(F)(F)F)c2)n1` is -2.62%; for `CC(O)CN(C)C(=O)Nc1ccn(-c2cccc(C(F)(F)F)c2)n1` (stereo not given) it is -3.19%. The figure for `CCN(CC(=O)NCCc1nc(C)no1)Cc1ccc(Cl)cc1` is -2.02%. Take `CC(C)(C)OC(=O)N1CCC[C@H](NCC2CCOCC2)C1`: the cytotoxicity at 70.5 h was -0.369%. Next, `CCC(=O)N1CCC(NC2CCCC2)C1` (stereo not given): -7.41%; `Cn1ncc2c(=O)[nH]c(CN3CCCc4cc(F)ccc43)nc21`: -23.1%; `Cc1cc(F)c2c(c1)CCCN2Cc1nc2c(cnn2C)c(=O)[nH]1`: -28.1%. Next, `CCN(CC)Cc1ccc(C(=O)NC2CCc3cc(F)ccc32)o1` (stereo not given): -19%. Next, `CCN(CC)Cc1ccc(C(=O)NC2CCc3cc(Cl)ccc32)o1` (stereo not given): 21.2%. With `CC(C)N(Cc1ccccc1)C(=O)NCCNC(=O)c1cccnc1`, the cytotoxicity at 70.5 h is -13.6%. For the compound `NC(=O)CC1CCCCN1C(=O)c1ccc2cc[nH]c2c1` (stereo not given), the cytotoxicity at 70.5 h came out at 21.6%.

`O=C(NCc1ccccn1)NCC(O)c1ccccc1C(F)(F)F` (stereo not given): the cytotoxicity at 70.5 h was -5.77%.

For `CC(C)CNC(=O)c1[nH]nc(C2CC2)c1Br`, the cytotoxicity at 70.5 h is -4.78%.

Take `CC(C)(CNc1c(C#N)cnc2ccc(Cl)cc12)C(N)=O`: the cytotoxicity at 70.5 h was -17.7%. The figure for `CN(C)C(CNC(=O)c1[nH]nc(C2CC2)c1Br)C1CC1` (stereo not given) is -5.45%; for `Cc1cc(C2CCCN(CC(=O)N3CCCc4ccccc43)C2)n[nH]1` (stereo not given) it is -9.66%. The figure for `Cc1c(Br)cccc1C(=O)Nc1cc(C(N)=O)n(C)c1` is -6.66%; for `CCc1csc(NC(=O)Nc2c(C)n[nH]c2C)n1` it is -4.31%. Next, `CS(=O)(=O)CC1(CNc2cc(C#N)c3cc(Cl)ccc3n2)CC1`: -6.39%; `Cc1cnc(CN(C)Cc2cccc(OC(F)(F)F)c2)cn1`: -3.82%.

Take `CCC1c2ccccc2CCN1CCCS(C)(=O)=O` (stereo not given): the cytotoxicity at 70.5 h was -3.06%. The figure for `CN(Cc1cccc(O)c1)Cc1cnn(C)c1` is -4.55%.

For the compound `CC(NCc1cnc(N2CCN(C)CC2)nc1)c1ccc(F)cc1` (stereo not given), the cytotoxicity at 70.5 h was -6.26%. Next, `CCCN1CCCN(C(=O)c2oc(C)nc2C)CC1`: 30.9%; `CC(C)OCc1noc(C2CCOC2)n1` (stereo not given): -9.31%; `CC(c1nc(C(C)(C)C)no1)S(=O)(=O)CC(=O)N(C)C` (stereo not given): -6.15%.

As to `CC(c1nc(C(C)(C)C)no1)S(=O)(=O)CC(=O)N1CCCC1` (stereo not given), the cytotoxicity at 70.5 h is -2.18%. Next, `Cc1cn2nc(Sc3nnnn3C)sc2n1`: -4.31%; `COc1ccc(C(=O)Nc2ccc3c(c2)C(=O)NC3)cc1Br`: -5.4%.

Regarding `CNS(=O)(=O)c1ccc(C(=O)Nc2ccc3c(c2)C(=O)NC3)cc1`, the cytotoxicity at 70.5 h amounted to 1.61%.

Turning to `CC(SCC(=O)N(C)CC(=O)NC1CC1)c1ccc(F)c(F)c1` (stereo not given), the cytotoxicity at 70.5 h was -10.3%. Next, `CN(CC(=O)NC(C)(C)C)C(=O)C1CC(c2cccc(F)c2)=NO1` (stereo not given): 4.91%. Next, `CN(Cc1ccc2c(c1)OCO2)C(=O)C1CC(c2cccc(F)c2)=NO1` (stereo not given): -9.63%. The figure for `CCn1c(C)nnc1Sc1nn2cc(C)nc2s1` is -5.8%; for `CCCNC(=O)C1CCN(CC(O)c2ccccc2)CC1` (stereo not given) it is -10.6%; for `CCOc1ccc(C#N)cc1NC(=O)N1CCC(n2cncn2)CC1` it is 5.95%. Regarding `COc1cccc(-c2nnn(C3CCN(CC(F)(F)F)C3=O)n2)c1` (stereo not given), the cytotoxicity at 70.5 h amounted to 0.471%. Turning to `O=C(c1cc(F)ccc1O)N1CCN(C(=O)C2CCC2)CC1`, the cytotoxicity at 70.5 h is -3.26%. Next, `O=C(c1cc(F)ccc1O)N1CCN(C2CCOCC2)CC1`: 0.856%; `CC(C)(C)S(=O)(=O)c1ccc(N2CCC(n3cncn3)CC2)cn1`: 14.6%. The figure for `CC(C)(C)S(=O)(=O)c1ccc(N2CCC(n3cccn3)CC2)cn1` is 6.49%; for `CC(C)(C)S(=O)(=O)c1ccc(N2CCC(n3ccnc3)CC2)cn1` it is -12.2%; for `CCOC(=O)CN(C)Cc1cnc(C)s1` it is 7.03%.

As for `CC(C)OCc1noc(C2CCCOC2)n1` (stereo not given), the cytotoxicity at 70.5 h is -10.6%.

As for `CN1CC(NC(=O)CCOc2cccc(Cl)c2)CC1=O` (stereo not given), the cytotoxicity at 70.5 h came out at 17.2%. The figure for `CC(C)C(=O)N(C)Cc1nnc2n1CCCCC2` is 25%; for `CN(C(=O)Cc1coc(-c2ccccc2)n1)C1(C#N)CCC1` it is 1.14%. The figure for `CC(C)OCCCNC(=O)NC(C)c1ccc(-n2cncn2)cc1` (stereo not given) is 0.395%. For the compound `CCOCCCNC(=O)NC(C)c1ccc(-n2cncn2)cc1` (stereo not given), the cytotoxicity at 70.5 h was -5.55%.

As to `CC(=O)c1cccc(S(=O)(=O)N2CCC(c3noc(C)n3)CC2)c1`, the cytotoxicity at 70.5 h is -9.37%. Next, `Cc1ccc(OCCC(=O)NC2CC(=O)N(C)C2)cc1C` (stereo not given): -6.43%; `CC(C)CC(NS(C)(=O)=O)C(=O)N(C)Cc1nnc2n1CCC2` (stereo not given): -8.38%. The figure for `O=C(Nc1ccccc1)c1ccc(NCc2nccs2)nn1` is -10%; for `Cc1cnn(CCNC(C)C(=O)NCCc2cccs2)c1` (stereo not given) it is 23%.

For the compound `O=C(Nc1ccccc1)c1ccc(NCc2ccccc2CO)nn1`, the cytotoxicity at 70.5 h was -6.13%. Next, `CS(=O)(=O)CCSCc1cccc2cccnc12`: -4.91%. Next, `CCc1cnc(N2CCN(Cc3ccon3)CC2)s1`: -6.28%; `CC(=O)Nc1ccc(CNC2CCCSC2)cc1` (stereo not given): 23.3%; `CN(C(=O)Cc1coc(-c2cccs2)n1)C1(C#N)CCC1`: -6.29%. The figure for `CC(C)OCCn1nnnc1Cc1ccc(Br)cc1` is -5.01%. With `Cc1cccc(-c2c[nH]c(C3CCCN3)n2)c1` (stereo not given), the cytotoxicity at 70.5 h was -7.37%.

The record behind these values is ChEMBL document CHEMBL3507680, “University of Dundee, Gates Library screen for HepG2 cell viability”.
